Measurements taken from patent US9975885B2, “Broad-spectrum non-covalent coronavirus protease inhibitors” (priority 2016, dated 2018).

Experiments:
[1] = tested on: Ten CoV 3CL^pro's (FIPV-, PEDV-, NL63-, HKU1-, OC43-, SARS-, HKU4-, HKU5-, HKU9-, IBV-3CL^pro); assay type: biochemical, coronaviruses (α-, β-, γ-CoV)
HKU1-3CL^pro = HKU1-3CL^pro (Human coronavirus HKU1 (isolate N1) (HCoV-HKU1), UniProt P0C6X2); experiment: biochemical
HKU4-3CL^pro = HKU4-3CL^pro (Bat coronavirus HKU4 (BtCoV) (BtCoV/HKU4/2004), UniProt P0C6W3); assay type: biochemical
HKU4-3CL^pro, sequence (P0C6W3 3292-3597 limits assumed): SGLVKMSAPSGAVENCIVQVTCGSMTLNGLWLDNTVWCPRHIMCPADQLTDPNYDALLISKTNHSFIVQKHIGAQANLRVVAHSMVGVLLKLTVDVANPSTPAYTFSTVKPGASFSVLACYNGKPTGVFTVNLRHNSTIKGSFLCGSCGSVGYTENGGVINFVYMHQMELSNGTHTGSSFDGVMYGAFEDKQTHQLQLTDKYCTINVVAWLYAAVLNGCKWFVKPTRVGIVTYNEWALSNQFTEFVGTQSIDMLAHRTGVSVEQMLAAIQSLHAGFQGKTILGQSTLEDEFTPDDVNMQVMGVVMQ

SARS-3CL^pro = SARS-3CL^pro (Severe acute respiratory syndrome coronavirus (SARS-CoV), UniProt P0C6X7); assay type: biochemical
HKU5-3CL^pro = HKU5-3CL^pro (Bat coronavirus HKU5 (BtCoV) (BtCoV/HKU5/2004), UniProt P0C6W4); assay type: biochemical
HKU5-3CL^pro, sequence (P0C6W4 3339-3644 limits assumed): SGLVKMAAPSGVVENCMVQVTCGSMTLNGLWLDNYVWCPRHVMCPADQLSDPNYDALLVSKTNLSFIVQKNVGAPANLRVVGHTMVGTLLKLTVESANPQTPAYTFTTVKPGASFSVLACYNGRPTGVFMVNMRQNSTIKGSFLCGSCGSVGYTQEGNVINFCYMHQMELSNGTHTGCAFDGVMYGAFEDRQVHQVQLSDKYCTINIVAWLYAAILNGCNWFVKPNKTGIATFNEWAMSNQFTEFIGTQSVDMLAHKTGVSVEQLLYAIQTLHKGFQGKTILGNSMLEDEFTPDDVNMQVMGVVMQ

HKU1-3CL^pro, sequence (P0C6X2 3335-3637 limits assumed): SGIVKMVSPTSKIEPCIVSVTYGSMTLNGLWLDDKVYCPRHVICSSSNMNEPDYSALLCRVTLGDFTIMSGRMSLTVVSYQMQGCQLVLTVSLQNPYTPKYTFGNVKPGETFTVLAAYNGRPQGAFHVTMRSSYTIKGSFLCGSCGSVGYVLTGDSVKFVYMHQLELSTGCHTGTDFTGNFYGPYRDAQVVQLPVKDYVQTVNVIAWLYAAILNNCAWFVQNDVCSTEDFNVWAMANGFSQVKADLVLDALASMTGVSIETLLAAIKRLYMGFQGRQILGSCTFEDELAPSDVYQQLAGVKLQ

## CC(C)(C)NC(=O)C(c1ccsc1)N(C(=O)Cc1c[nH]c2ccccc12)c1ccc(NC(=O)C2CC2)cc1 (centres unmarked) [Compound 26, N-(4-(N-(2-(tert-butylamino)-2-oxo-1-(thiophen-3-yl)ethyl)-2-(1H-indol-3-yl)acetamido)phenyl)cyclopropanecarboxamide]
[1]
  Gini Coefficient: 0.46
  inhibition of any 3CL^pro: ≤ 50%

## CC(C)C(=O)Nc1ccc(N(C(=O)Cn2nnc3ccccc32)C(C(=O)NCc2ccccc2)c2ccc(N(C)C)cc2)cc1 (centres unmarked) [Compound 52, N-(4-(2-(1H-benzo[d][1,2,3]triazol-1-yl)-N-(2-(benzylamino)-1-(4-(dimethylamino)phenyl)-2-oxoethyl)acetamido)phenyl)isobutyramide]
[1]
  Gini Coefficient: 0.42
  inhibition of any 3CL^pro: ≤ 50%

## CC(C)(C)NC(=O)C(c1ccsc1)N(C(=O)Cc1coc2ccccc12)c1ccc(NC(=O)C2CC2)cc1 (centres unmarked) [Compound 25, N-(4-(2-(benzofuran-3-yl)-N-(2-(tert-butylamino)-2-oxo-1-(thiophen-3-yl)ethyl)acetamido)phenyl)cyclopropanecarboxamide]
[1]
  Gini Coefficient: 0.39
  inhibition of any 3CL^pro: ≤ 50%

## COc1cccc(C(C(=O)NCc2ccccc2)N(C(=O)Cn2nnc3ccccc32)c2ccc(NC(=O)C(C)C)cc2)c1 (centres unmarked) [Compound 14, N-(4-(2-(1H-benzo[d][1,2,3]triazol-1-yl)-N-(2-(benzylamino)-1-(3-methoxyphenyl)-2-oxoethyl)acetamido)phenyl)isobutyramide]
HKU1-3CL^pro
  IC50: 1.8 ± 0.3 µM
  IC50 HKU1: low micromolar
HKU4-3CL^pro
  IC50: 2.4 ± 0.2 µM
  IC50 HKU4: low micromolar
SARS-3CL^pro
  IC50: 3.5 ± 0.4 µM
  IC50 SARS: low micromolar
[1]
  Gini Coefficient: 0.33
  Score (performance metric score): 6.6
HKU5-3CL^pro
  IC50: 2.2 ± 0.3 µM
  IC50 HKU5: low micromolar

## CC(C)C(=O)Nc1ccc(N(C(=O)Cn2nnc3ccccc32)C(C(=O)NCc2ccccc2)c2cccc(Cl)c2)cc1 (centres unmarked) [Compound 11, N-(4-(2-(1H-benzo[d][1,2,3]triazol-1-yl)-N-(2-(benzylamino)-1-(3-chlorophenyl)-2-oxoethyl)acetamido)phenyl)isobutyramide]
[1]
  inhibition of any 3CL^pro: ≤ 50%

## Cc1cccc2c(CC(=O)N(c3ccc(NC(=O)C(C)C)cc3)C(C(=O)NCc3ccccc3)c3cccc(F)c3)c[nH]c12 (centres unmarked) [Compound 57, N-(4-(N-(2-(benzylamino)-1-(3-fluorophenyl)-2-oxoethyl)-2-(7-methyl-1H-indol-3-yl)acetamido)phenyl)isobutyramide]
[1]
  Gini Coefficient: 0.38
  inhibition of any 3CL^pro: ≤ 50%

## CC(C)(C)NC(=O)C(c1ccsc1)N(C(=O)Cc1csc2ccccc12)c1ccc(NC(=O)C2CC2)cc1 (centres unmarked) [Compound 24, N-(4-(2-(benzo[b]thiophen-3-yl)-N-(2-(tert-butylamino)-2-oxo-1-(thiophen-3-yl)ethyl)acetamido)phenyl)cyclopropanecarboxamide]
[1]
  Gini Coefficient: 0.40
  inhibition of any 3CL^pro: ≤ 50%

## COc1cc(N(C(=O)c2c[nH]cn2)C(C(=O)NC(C)(C)C)c2cccnc2)cc(OC)c1OC (centres unmarked) [Compound 69, N-(2-(tert-butylamino)-2-oxo-1-(pyridin-3-yl)ethyl)-N-(3,4,5-trimethoxyphenyl)-1H-imidazole-4-carboxamide]
[1]
  Gini Coefficient: 0.45

## CC(C)C(=O)Nc1ccc(N(C(=O)Cc2coc3ccccc23)C(C(=O)NCc2ccccc2)c2cccc(F)c2)cc1 (centres unmarked) [Compound 20, N-(4-(2-(benzofuran-3-yl)-N-(2-(benzylamino)-1-(3-fluorophenyl)-2-oxoethyl)acetamido)phenyl)isobutyramide]
[1]
  Gini Coefficient: 0.39
  inhibition of any 3CL^pro: ≤ 50%

## Cc1nccn1CCC(=O)N(c1ccc(NC(=O)C2CC2)cc1)C(C(=O)NC(C)(C)C)c1ccsc1 (centres unmarked) [Compound 63, N-(4-(N-(2-(tert-butylamino)-2-oxo-1-(thiophen-3-yl)ethyl)-3-(2-methyl-1H-imidazol-1-yl)propanamido)phenyl)cyclopropanecarboxamide]
[1]
  Gini Coefficient: 0.44
  inhibition of any 3CL^pro: ≤ 50%

## Cc1cccc2c(CC(=O)N(c3ccc(NC(=O)C4CC4)cc3)C(C(=O)NC(C)(C)C)c3ccsc3)c[nH]c12 (centres unmarked) [Compound 61, N-(4-(N-(2-(tert-butylamino)-2-oxo-1-(thiophen-3-yl)ethyl)-2-(7-methyl-1H-indol-3-yl)acetamido)phenyl)cyclopropanecarboxamide]
[1]
  Gini Coefficient: 0.43
  inhibition of any 3CL^pro: ≤ 50%

## CC(C)C(=O)Nc1ccc(N(C(=O)Cn2nnc3ccccc32)C(C(=O)NCc2ccccc2)c2ccncc2)cc1 (centres unmarked) [Compound 16, N-(4-(2-(1H-benzo[d][1,2,3]triazol-1-yl)-N-(2-(benzylamino)-2-oxo-1-(pyridin-4-yl)ethyl)acetamido)phenyl)isobutyramide]
[1]
  Gini Coefficient: 0.52
  inhibition of any 3CL^pro: ≤ 50%

## CC(C)(C)NC(=O)C(c1ccsc1)N(C(=O)C1CCN(C(=O)OC(C)(C)C)CC1)c1ccc(NC(=O)C2CC2)cc1 (centres unmarked) [Compound 60, tert-butyl 4-((2-(tert-butylamino)-2-oxo-1-(thiophen-3-yl)ethyl)(4-(cyclopropanecarboxamido)phenyl)carbamoyl)piperidine-1-carboxylate]
[1]
  Gini Coefficient: 0.60
  inhibition of any 3CL^pro: ≤ 50%

## CC(C)C(=O)Nc1ccc(N(C(=O)Cn2nnc3ccccc32)C(C(=O)NCc2ccccc2)c2ccc(Cl)cc2)cc1 (centres unmarked) [Compound 12, N-(4-(2-(1H-benzo[d][1,2,3]triazol-1-yl)-N-(2-(benzylamino)-1-(4-chlorophenyl)-2-oxoethyl)acetamido)phenyl)isobutyramide]
[1]
  Gini Coefficient: 0.37

## CC(C)C(=O)Nc1ccc(N(C(=O)Cn2nnc3ccccc32)C(C(=O)NCc2ccccc2)c2ccc(Cl)c(F)c2)cc1 (centres unmarked) [Compound 55, N-(4-(2-(1H-benzo[d][1,2,3]triazol-1-yl)-N-(2-(benzylamino)-1-(4-chloro-3-fluorophenyl)-2-oxoethyl)acetamido)phenyl)isobutyramide]
SARS-3CL^pro
  IC50: 0.8 ± 0.1 µM
[1]
  Gini Coefficient: 0.50
  Score (performance metric score): 9.8

## Cc1cc(N(C(=O)c2c[nH]cn2)C(C(=O)NC(C)(C)C)c2cccnc2)ccc1Cl (centres unmarked) [Compound 70, N-(2-(tert-butylamino)-2-oxo-1-(pyridin-3-yl)ethyl)-N-(4-chloro-3-methylphenyl)-1H-imidazole-4-carboxamide]
[1]
  Gini Coefficient: 0.33

## CC(C)C(=O)Nc1ccc(N(C(=O)Cn2nnc3ccccc32)C(C(=O)NCc2ccccc2)c2cccnc2)cc1 (centres unmarked) [Compound 15, N-(4-(2-(1H-benzo[d][1,2,3]triazol-1-yl)-N-(2-(benzylamino)-2-oxo-1-(pyridin-3-yl)ethyl)acetamido)phenyl)isobutyramide]
HKU4-3CL^pro
  IC50: 4 ± 0.4 µM
SARS-3CL^pro
  IC50: 10.9 ± 1.9 µM
[1]
  Gini Coefficient: 0.48
  Score (performance metric score): 9.7
HKU5-3CL^pro
  IC50: 9.6 ± 1.2 µM

## CC(C)(C)NC(=O)C(c1cccnc1)N(C(=O)c1c[nH]cn1)c1cccc(C(C)(C)C)c1 (centres unmarked) [Compound 71]
[1]
  Gini Coefficient: 0.30

## CC(C)(C)NC(=O)C(c1ccsc1)N(C(=O)CCc1nc2ccccc2[nH]1)c1ccc(NC(=O)C2CC2)cc1 (centres unmarked) [Compound 62, N-(4-(3-(1H-benzo[d]imidazol-2-yl)-N-(2-(tert-butylamino)-2-oxo-1-(thiophen-3-yl)ethyl)propanamido)phenyl)cyclopropanecarboxamide]
[1]
  Gini Coefficient: 0.46
  inhibition of any 3CL^pro: ≤ 50%

## CC(C)C(=O)Nc1ccc(N(C(=O)CCc2nc3ccccc3[nH]2)C(C(=O)NCc2ccccc2)c2cccc(F)c2)cc1 (centres unmarked) [Compound 58, 3-(1H-benzo[d]imidazol-2-yl)-N-(2-(benzylamino)-1-(3-fluorophenyl)-2-oxoethyl)-N-(4-isobutyramidophenyl)propanamide]
[1]
  Gini Coefficient: 0.40

## CC(C)C(=O)Nc1ccc(N(C(=O)Cn2nnc3ccccc32)C(C(=O)NCc2ccccc2)c2ccc(OCCCN(C)C)cc2)cc1 (centres unmarked) [Compound 54, N-(4-(2-(1H-benzo[d][1,2,3]triazol-1-yl)-N-(2-(benzylamino)-1-(4-(3-(dimethylamino)propoxy)phenyl)-2-oxoethyl)acetamido)phenyl)isobutyramide]
HKU1-3CL^pro
  IC50: 20 ± 2.9 µM
SARS-3CL^pro
  IC50: 27.3 ± 4.6 µM
[1]
  Gini Coefficient: 0.59
  Score (performance metric score): 19.8

## CC(C)C(=O)Nc1ccc(N(C(=O)C2CCN(C(=O)OC(C)(C)C)CC2)C(C(=O)NCc2ccccc2)c2cccc(F)c2)cc1 (centres unmarked) [Compound 56, tert-butyl 4-((2-(benzylamino)-1-(3-fluorophenyl)-2-oxoethyl)(4-isobutyramidophenyl)carbamoyl) piperidine-1-carboxylate]
[1]
  Gini Coefficient: 0.34

## COc1ccc(C(C(=O)NCc2ccccc2)N(C(=O)Cn2nnc3ccccc32)c2ccc(NC(=O)C(C)C)cc2)cc1 (centres unmarked) [Compound 13, N-(4-(2-(1H-benzo[d][1,2,3]triazol-1-yl)-N-(2-(benzylamino)-1-(4-methoxyphenyl)-2-oxoethyl)acetamido)phenyl)isobutyramide]
HKU1-3CL^pro
  IC50: 2.5 ± 0.4 µM
[1]
  Gini Coefficient: 0.43
  Score (performance metric score): 6.4
HKU5-3CL^pro
  IC50: 1.3 ± 0.2 µM

## Cc1nccn1CCC(=O)N(c1ccc(NC(=O)C(C)C)cc1)C(C(=O)NCc1ccccc1)c1cccc(F)c1 (centres unmarked) [Compound 59, N-(2-(benzylamino)-1-(3-fluorophenyl)-2-oxoethyl)-N-(4-isobutyramidophenyl)-3-(2-methyl-1H-imidazol-1-yl)propanamide]
[1]
  Gini Coefficient: 0.44
